Experimental data published in patent publication US20210101899A1, “INHIBITORS OF MUTANT ISOCITRATE DEHYDROGENASES AND COMPOSITIONS AND METHODS THEREOF” (IsoCure Biosciences Inc., priority 2016, published 2021).

Legend:
Type in all cases: biochemical
IDH1 (R132H) = IDH1 (R132H) (Homo sapiens, UniProt O75874, R132H); assay: IDH enzyme assay, NADPH depletion by diaphorase/resazurin coupled detection; details: pre-incubated with enzyme for 1 h at room temperature; 1500 μM a-Ketoglutarate+15 μM NADPH; 10-dose, 3-fold dilution from 10 μM; read-out: Compound IC50 (nM) IDH1 (R132H)
Sequence of IDH1 (R132H) (O75874 whole entry R132H): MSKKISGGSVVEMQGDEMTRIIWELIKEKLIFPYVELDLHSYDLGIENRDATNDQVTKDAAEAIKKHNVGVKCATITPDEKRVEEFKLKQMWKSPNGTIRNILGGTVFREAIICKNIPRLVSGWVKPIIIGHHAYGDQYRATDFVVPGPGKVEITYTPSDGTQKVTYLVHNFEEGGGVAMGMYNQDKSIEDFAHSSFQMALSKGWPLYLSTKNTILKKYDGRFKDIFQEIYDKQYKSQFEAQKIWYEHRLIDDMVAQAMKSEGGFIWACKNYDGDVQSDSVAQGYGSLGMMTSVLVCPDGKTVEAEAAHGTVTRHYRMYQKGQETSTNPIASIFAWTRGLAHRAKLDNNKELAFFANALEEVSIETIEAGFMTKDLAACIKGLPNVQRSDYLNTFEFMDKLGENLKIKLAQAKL
Procedure: (§1) Compounds were tested against 3 enzymes, as provided below. Compounds were tested in 10-dose IC50 mode with 3-fold serial dilution at a starting concentration of 10 μM. Control Compounds were tested in 10-dose IC50 mode with 3-fold serial dilution starting at 1 mM or 10 mM. Assay Format: The production or depletion of NADPH by IDH enzymes was measured by diaphorase/resazurin coupled detection. Fluorescence measurement: Ex/Em=535/590 by EnVision. Compounds were pre-incubated with enzyme for 1 h at room temperature. Standard substrate: 1500 μM a-Ketoglutarate+15 μM NADPH for IDH1 (R132H). 500 μM a-Ketoglutarate+15 μM NADPH for IDH1 (R132C). 65 μM Isocitrate+50 μM NADP for IDH1.

IDH1 (R132C) = IDH1 (R132C) (Homo sapiens, UniProt O75874, R132C); assay: as above; details: pre-incubated with enzyme for 1 h at room temperature; 500 μM a-Ketoglutarate+15 μM NADPH; 10-dose, 3-fold dilution from 10 μM; read-out: Compound IC50 (nM) IDH1 (R132C)
Sequence of IDH1 (R132C) (O75874 whole entry R132C): as the sequence (O75874 whole entry R132H) above, with H132C counted along it
Procedure: as §1

IDH1 = IDH1 (Homo sapiens, UniProt O75874); assay: IDH enzyme assay, NADPH production by diaphorase/resazurin coupled detection; details: IDH1 WT; pre-incubated with enzyme for 1 h at room temperature; 65 μM Isocitrate+50 μM NADP; 10-dose, 3-fold dilution from 10 μM; read-out: Compound IC50 (nM) IDH1
Sequence of IDH1 (O75874 whole entry): as the sequence (O75874 whole entry R132H) above, with H132R counted along it
Procedure: as §1

IC50 (IDH1 (R132H))	IC50 (IDH1 (R132C))	IC50 (IDH1)	Compound
5 nM	35 nM	4780 nM	C=CC(=O)Nc1ccc(NC(=O)c2nn(Cc3ccc(F)cc3)c3c2CN(C(=O)c2ccc[nH]2)CC3C)s1 (stereo not drawn) [ISO-2-19, N-(5-acrylamidothiophen-2-yl)-1-(4-fluorobenzyl)-7-methyl-5-(1H-pyrrole-2-carbonyl)-4,5,6,7-tetrahydro-1H-pyrazolo[4,3-c]pyridine-3-carboxamide]
5480 nM	7370 nM	> 10000 nM	C=CC(=O)NC1CC(NC(=O)c2nn(Cc3ccc(F)cc3)c3c2CN(C(=O)c2ccc[nH]2)CC3C)C1 (stereo not drawn) [ISO-2-20, N-(3-acrylamidocyclobutyl)-1-(4-fluorobenzyl)-7-methyl-5-(1H-pyrrole-2-carbonyl)-4,5,6,7-tetrahydro-1H-pyrazolo[4,3-c]pyridine-3-carboxamide]
